Consider one compound from US7301070B2, “Plant fatty acid synthases and use in improved methods for production of medium-chain fatty acids” (Calgene LLC, priority 1997, dated 2007).

One experiment relates to Synthase I (KAS I). As to conditions: cited from earlier work.
The next experiment deals with Synthase III. As to conditions: cited from earlier work.
A further experiment concerns Ch KAS A-2-7. The experiment in a line: In vitro fatty acid synthesis assay, seed extracts of transgenic Brassica expressing chKAS A-2-7. It counts as biochemical, Cuphea hookeriana. The note with it: conclusion from FIG. 22 data. As to the method: (§1) Seed extracts were prepared from developing seeds of nontransgenic controls or transgenic Brassica expressing chKAS A-2-7 as described in Slabaugh et al. (Plant Journal, 1998 in press) and Leonard et al. (Plant Journal, 1998, in press). In vitro fatty acid synthesis assays were performed as described by Post-Beittenmiller (J. Biol. Chem. (1991), 266:1858-1865). Extracts were concentrated by ammonium sulfate precipitation and desalting using P-6 columns (Bio-Rad, Hercules, Calif.). Reactions (65 μl) contained 0.1M Tris/HCl (pH 8.0), 1 mM dithiothreitol, […] recombinant spinach ACP1, 1 mM NADH, 2 mM NADPH, 50 μM malonyl-CoA, 10 μM [1-^14C]acetyl-CoA (50 mCi/mmol), 1 mg/ml BSA, and 0.25 mg/ml seed protein. Selected seed extracts were preincubated with cerulenin at 23° C. for 10 min. Reaction products were separated on an 18% acrlamide gel containing 2.25M urea, electroblotted onto to nitrocellulose and quntitated by phosporimaging using Image QuaNT software (Molecular Dynamics, Sunnyvale, Calif.). Authentic acyl-ACPs were run in parallel, immunoblotted and finally detected by anti-ACP serum to confirm fatty acid chain lengths.

Experiment [1] deals with fatty acid synthesis in Brassica seed extracts. Briefly: In vitro fatty acid synthesis assay in seed extracts preincubated with cerulenin. It counts as biochemical. As to the method:
as §1

The test system of the next experiment is Synthase II (KAS II). The note with it: higher concentrations than KAS I; cited from earlier work.

For `C/C=C/C/C=C/CCC(=O)[C@H]1O[C@H]1C(N)=O` [cerulenin], in the experiment with Synthase I (KAS I), the “concentration of cerulenin at which KAS I is sensitive to inhibition” value was 1 µM. Besides, in the experiment with Synthase III, the “sensitivity of synthase III to cerulenin inhibition” value is “insensitive to inhibition by cerulenin”. In addition, the “sensitivity of chKAS A-2-7 to cerulenin” value with Ch KAS A-2-7 is recorded as “cerulenin-resistant”. Further, in experiment [1] (seed extracts from transgenic lines compared with nontransgenic control Brassica), the “inhibition of extension of the spinach-ACP by cerulenin” value was “much less inhibited”. Besides, the “synthesis of longer chain fatty acids after pretreatment of extracts with cerulenin” value in experiment [1] (transgenic (5401-9) and nontransgenic control seed extracts, preincubated at 23° C. for 10 min) is on record as “markedly reduced”. Moreover, in the experiment on Synthase II (KAS II), the “concentration of cerulenin at which KAS II is inhibited” value was 50 µM.
